This note sets out measurements from patent US20110166078A1, “OLIGOSACCHARIDE COMPOUNDS FOR USE IN MOBILISING STEM CELLS” (ENDOTIS PHARMA, priority 2008, published 2011).

By IC50 is commonly meant the concentration that inhibits the measured activity by half.

One experiment deals with FGF-2 (Homo sapiens, UniProt P09038). Description: FGF-2/heparin competition assay by SPR (Biacore). The experiment is classed as binding. As to conditions: 10 nM FGF-2, biotinylated heparin, Sensorchip C1. On the procedure:
(§1) Heparin or low molecular weight heparin (6 kDa) from SIGMA were biotinylated at the reducing end and immobilized on a Biacore sensorchip. Different concentrations of the compounds of the present invention were co-incubated at a fixed concentration of targets: FGF-2, PDGF-β, VEGF-A or SDF-1α for 30 minutes. The mixture was then injected onto the streptavidin control (control reference) and HP surfaces. Only free growth factor (GF) or chemokine, i.e. the target molecules not bound to compounds of the present invention, were trapped on the heparin surface. From the binding of free targets on heparin, the percentages of inhibition were calculated and then reported in function of compound concentrations. The plot was fitted with a four-parameter model and IC50 was calculated. The 0% inhibition value was obtained for the injection of the studied target in running-buffer, and the 100% inhibition value was obtained for the injection of the studied target co-incubated with 10 μM of low molecular weight heparin 6 kDa.
A FGF-2/heparin competition assay using the Biacore technology was performed in the following conditions: 10 nM FGF-2, biotinylated heparin, Reference Streptavidin, Sensorchip C1, PBS-T 0.02%, Regeneration NaCl 2M
(§2) IC50 values of compounds of the present invention were determined using the Biacore technology for the growth factor and chemokine/heparin competition assays that contained the following proteins: VEGF-A, SDF-1α, FGF-2 and PDGF-β.

The next experiment addresses SDF-1α (Homo sapiens, UniProt P48061). As to the kind of experiment: SDF-1α/heparin competition assay by SPR (Biacore). Type of experiment: binding. As to conditions: 96 nM SDF-1α, biotinylated low molecular weight heparin (6 kDa), Sensorchip SA. On the procedure: as §1
A SDF-1α/heparin competition assay using the Biacore technology was performed using the following conditions: 96 nM SDF-1α, biotinylated low molecular weight heparin (6 kDa), Reference Streptavidin, Sensorchip SA, HBS-P, Regeneration NaCl 2M
as §2
A general note: In SPR one partner is held on a chip, and binding of the other changes the refractive index at the surface.

The next experiment concerns the target PDGF-β (Homo sapiens, UniProt P01127). As to the kind of experiment: PDGF-β/heparin competition assay by SPR (Biacore). The experiment is classed as binding. As to conditions: 10 nM PDGF-β, biotinylated heparin, Sensorchip C1. The method, then:
as §1, with “kDa. A PDGF-β/heparin competition assay using the Biacore technology was performed using the following conditions: 10 nM PDGF-β, biotinylated heparin, Reference Streptavidin, Sensorchip C1, HBS-P, Regeneration NaCl 2M. IC50 values of compounds of the present invention were determined using the Biacore technology for the growth factor and chemokine/heparin competition assays that contained the following proteins: VEGF-A, SDF-1α, FGF-2 and PDGF-β.” for “kDa.”

The target in a further experiment is T1, heparanase (Homo sapiens, UniProt Q9Y251).
T1 sequence (Q9Y251 158-543 limits assumed): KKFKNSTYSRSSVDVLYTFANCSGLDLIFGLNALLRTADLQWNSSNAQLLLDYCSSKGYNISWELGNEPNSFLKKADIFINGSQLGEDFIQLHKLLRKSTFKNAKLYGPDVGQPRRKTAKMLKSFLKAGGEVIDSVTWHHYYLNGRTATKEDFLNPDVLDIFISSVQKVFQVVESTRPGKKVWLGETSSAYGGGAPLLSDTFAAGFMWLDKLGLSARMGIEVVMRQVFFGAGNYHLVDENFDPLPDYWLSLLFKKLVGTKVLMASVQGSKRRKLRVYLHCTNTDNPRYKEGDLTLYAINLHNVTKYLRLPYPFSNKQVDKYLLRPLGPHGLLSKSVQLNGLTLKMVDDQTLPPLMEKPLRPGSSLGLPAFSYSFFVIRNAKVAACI
T1 sequence (Q9Y251 36-109 limits assumed): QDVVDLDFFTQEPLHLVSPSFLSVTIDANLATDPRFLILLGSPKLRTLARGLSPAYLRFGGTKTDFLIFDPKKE
Description: Anti-heparanase activity (fondaparinux degradation / factor Xa chromogenic assay). Type of experiment: biochemical. The method, then:
To determine the compounds IC50 values for the heparanase target, we adapted an assay based on the ability of heparanase to degrade fondaparinux (Sanofi patent No. 287 3377 FR), and the capacity of fondaparinux to inhibit factor Xa activity via AT III binding. This assay was carried out on a STA Compact robot (Diagnostica Stago). Briefly, different concentrations of compounds were added to a mixture containing the heparanase enzyme and fondaparinux and after a time-fixed incubation period, AT III, Factor Xa and a chromogenic substrate (CBS 31.39) were sequentially added to the reaction mix. Production of paranitroanilin resulting from the degradation of the chromogenic substrate CBS 31.39 was monitored at 405 nm. Data obtained for the different concentration points were plotted using a four-parameter fit model and IC50 determined.

Regarding `C#CCCCOC1OC(COS(=O)(=O)[O-])C(OC2OC(C(=O)[O-])C(OC3OC(COS(=O)(=O)[O-])C(OC4OC(C(=O)[O-])C(OC5OC(COS(=O)(=O)[O-])C(OC6OC(C(=O)[O-])C(OCc7ccccc7)C(OCc7ccccc7)C6OS(=O)(=O)[O-])C(OCc6ccccc6)C5NS(=O)(=O)[O-])C(OCc5ccccc5)C4OS(=O)(=O)[O-])C(OCc4ccccc4)C3NS(=O)(=O)[O-])C(OCc3ccccc3)C2OS(=O)(=O)[O-])C(OCc2ccccc2)C1NS(=O)(=O)[O-].[Na+].[Na+].[Na+].[Na+].[Na+].[Na+].[Na+].[Na+].[Na+].[Na+].[Na+].[Na+]` (centres unmarked) [Compound 239], the IC50 on FGF-2 came to 4.5 nM; on SDF-1α, 43 nM; at PDGF-β, 85 nM; at heparanase, 9.2 nM.

On to `C#CCCCOC1OC(COS(=O)(=O)[O-])C(OC2OC(C(=O)[O-])C(OC3OC(COS(=O)(=O)[O-])C(OC4OC(C(=O)[O-])C(OC5OC(COS(=O)(=O)[O-])C(OC6OC(C(=O)[O-])C(OC7OC(COS(=O)(=O)[O-])C(OC8OC(C(=O)[O-])C(OCc9ccccc9)C(OCc9ccccc9)C8OS(=O)(=O)[O-])C(OCc8ccccc8)C7NS(=O)(=O)[O-])C(OCc7ccccc7)C6OS(=O)(=O)[O-])C(OCc6ccccc6)C5NS(=O)(=O)[O-])C(OCc5ccccc5)C4OS(=O)(=O)[O-])C(OCc4ccccc4)C3NS(=O)(=O)[O-])C(OCc3ccccc3)C2OS(=O)(=O)[O-])C(OCc2ccccc2)C1NS(=O)(=O)[O-].[Na+].[Na+].[Na+].[Na+].[Na+].[Na+].[Na+].[Na+].[Na+].[Na+].[Na+].[Na+].[Na+].[Na+].[Na+].[Na+]` (centres unmarked) [Compound 240], for which the IC50 at FGF-2 was 3.6 nM; at SDF-1α, 23 nM; on PDGF-β, 10.9 nM; at heparanase, 0.42 nM.
